Data on four compounds can be found in patent US20020055470A1, “Circumvention of human tumor drug resistance” (CITY OF HOPE, priority 1987, published 2002).

Common to all, as to assay type: cell-based, human
The subject of data set [1] is A2780S. As to the kind of experiment: Inhibition of cell growth (cells counted on Coulter Counter after six days). On the procedure:
The experiment was conducted in triplicate in the manner described with respect to Table I.
A2780 cells were well-plated (35 mm disnes) and 24 hours later the cells were treated with cisplatin for one hour, washed out and then treated with 6 concentrations of from 1 μM to 100 μM increased in equal increments of a nucleoside analog in saline. Cells were then washed and incubated for six days. The cells were counted on a Coulter Counter and the experiment was done in triplicate.
(§1) Table VI includes EC50 data further exemplifying the invention. The data reported by Table VI was obtained by substantially the same procedure as that described with respect to Table III. In Table VI, “(C)” indicates continuous exposure, “(1 h)” and “(2 h)” indicate exposure for 1 hour and 2 hours; “HU” indicates hydroxyurea.

The test system of data set [2] is A2780DDP. The data set is described as above. As to the method: The experiment was conducted in triplicate in the manner described with respect to Table I. […]
as §1

Data set [3] concerns HCT8DDP. Described as above. To be noted: for EC50: HCT8-DDP, read-out: EC50. As to the method:
as §1

Data set [4] relates to HCT8S. The data set is described as above. Particulars: read-out: EC50. As to the method: as §1
Data set [5] has as its system HCF7S. As to the kind of experiment: Inhibition of cell growth, Table VI.
For data set [6], the system named is HCF-7 DDP. As to the kind of experiment: Inhibition of cell growth, Table VI. To be noted: for EC50: HCF-7 DDP. As to the method: as §1
In data set [7] the test system is K562-araC. As to the kind of experiment: Inhibition of cell growth, Table VI. Particulars: K562-araC. As to the method: as §1
The subject of data set [8] is K562S. As to the kind of experiment: Inhibition of cell growth, Table VI. On the procedure: as §1
The test system of data set [9] is K562-DDP. As to the kind of experiment: Inhibition of cell growth, Table VI. To be noted: K562-DDP.
Data set [10] deals with K562-VP16. As to the kind of experiment: Inhibition of cell growth, Table VI.
Data set [11] deals with CEMS. As to the kind of experiment: Cytotoxicity by continuous exposure in CEM cells. As to the method:
(§2) There was an increase in DHFR enzyme activity (11.07-fold) due to an eight-fold increase in DHFR gene amplification and expression in CEM/MTX cells. There was also a corresponding 2-fold increase in thymidine kinase (TK) enzyme activity and TK gene expression in CEM/MTX cells. […] CEM cells untreated with nucleoside analog were the controls (100%). The experiment was performed three separate times in duplicate.

The subject of data set [12] is CEMDDP. As to the kind of experiment: Cytotoxicity by continuous exposure in CEM cells.
Data set [13] has as its system CEMMTX. As to the kind of experiment: Cytotoxicity by continuous exposure in CEM cells. On the procedure: CEM cells were made 15.8-fold resistant to methotrexate (MTX) by weekly (2 hr) pulses and cloned in soft agar. The optimal growth requirements for the CEMS/S and CEM/MTX for folinic acid cells were 2 nM and 10 nM. If the cells were grown in higher concentrations of folinic acid (10^−7 M), both cell lines were correspondingly more resistant to MTX. In contrast, fluoropyrimidine cytotoxicity was enhanced in both cell lines with increasing concentrations of folinic acid from 10^−7 M to 10^−6 M. At concentrations of folinic acid that are not optimal for cell growth, both CEM cell lines are hypersensitive to fluoropyrimidines. In addition, CEM/MTX cells are more hypersensitive to fluoropyrimidines than CEM/S cells at (10^−8 M) folinic acid or lower concentrations.
as §2

Data set [14] concerns A2780S. As to the kind of experiment: Dual labeled (14C/3H) DNA synthesis and degradation in response to cisplatin. As to the method:
(§3) A dual labeled (^14C/^3H) experiment was designed to measure simultaneously DNA synthesis and degradation in response to cisplatin. […] A2780S cells respond to cisplatin with a modest degradation (10%) of (^14C) DNA over 3 hrs. In contrast, A2780DDP degradation 40.5% of the (^14C) DNA in 3 hrs. […] Transplatin at equimolar concentrations (20 μM) had no influence on DNA synthesis or degradation in A2780 cells.

Data set [15] concerns A2780DDP. As to the kind of experiment: Dual labeled (14C/3H) DNA synthesis and degradation in response to cisplatin; incorporation of labelled nucleoside analogs. An excerpt:
A dual labeled (^14C/^3H) experiment was designed to measure simultaneously DNA synthesis and degradation in response to cisplatin.

The subject of data set [16] is A2780 cells. As to the kind of experiment: Dual labeled (14C/3H) DNA synthesis and degradation. To be noted: 20 μM. As to the method: as §3
[17] abbreviates: cisplatin 20 μM, treatment time 0 min.
Setting [18] is: cisplatin 20 μM, treatment time 45 min.
Where [19] appears, read: cisplatin 20 μM, treatment time 90 min.
Where [20] appears, read: cisplatin 20 μM, treatment time 180 min.

Read-outs that look alike come from different tables or passages of the source.

With `Cc1cn([C@H]2C[C@H](N=[N+]=[N-])[C@@H](CO)O2)c(=O)[nH]c1=O` [AZT, 3′ azido-2′, 3′ dideoxythymidine], the EC50 is 10 µM in [1] (A2780S, (C) continuous exposure, read-out: EC50); 10 µM in [1] (continuous exposure, proliferation during 6 days, mean + SD, read-out: EC50 A2780S); 510 µM in data set [2] (A2780 DDP, (C) continuous exposure, read-out: EC50); 510 µM in data set [2] (continuous exposure, proliferation during 6 days, mean + SD, read-out: EC50 A2780DDP); 11 µM in data set [3] ((C) continuous exposure); 5.5 µM in [4] ((C) continuous exposure). The half-maximal effective concentration (EC50) in [5] ((C) continuous exposure) was found to be 65 µM; in data set [6] ((C) continuous exposure), 10 µM; in data set [7] ((C) continuous exposure) it was 70 µM; in data set [8] ((C) continuous exposure) it was 125 µM; in data set [9] ((C) continuous exposure) it was 150 µM; in [10] ((C) continuous exposure), 200 µM. Further, the 50% effective concentration (EC50) entry is “N.E.**” in data set [11] (CEMS, continuous exposure); “N.E.**” in data set [12]; 25 µM in [13] (CEM/MTX cells, continuous exposure (1-160 μM)). Besides, the cytotoxicity entry in data set [11] (CEM/S cells, continuous exposure up to 160 μM) is listed as “minimal cytotoxicity”. Besides, the “increased incorporation of (3H) AZT into TCA material” value in data set [14] (A2780S, in response to cisplatin 20 μM) is recorded as 18.8%. Moreover, the “3H-AZT/DNA A2780S” value in data set [14] (setting [17]) turned out to be 7.79; in [14] (setting [18]) it was 6.27; in data set [14] (setting [19]), 7.23; in [14] (setting [20]), 9.25. Further, the “Incorporation of labelled nucleoside analog into macromolecules” value is listed as 26.96 in data set [15] (A2780DDP, 0 min after cisplatin (20 μM) treatment); 31.62 in data set [15] (A2780DDP, 45 min after cisplatin (20 μM) treatment); 32.31 in data set [15] (A2780DDP, 90 min after cisplatin (20 μM) treatment); 37.96 in data set [15] (A2780DDP, 180 min after cisplatin (20 μM) treatment). Moreover, the “3H-AZT/DNA A2780DDP” value in data set [15] (setting [17]) was found to be 26.96; in data set [15] (setting [18]), 31.62; in data set [15] (setting [19]), 32.31; in data set [15] (setting [20]) it was 37.96.
With `N.N.[Cl][Pt][Cl]` [Cisplatin, cisplatin], the EC50 came to 7 µM in data set [1] (A2780S, (1h) exposure, read-out: EC50); 7 µM in data set [1] (treatment time 1 hr, proliferation during 6 days, mean + SD, read-out: EC50 A2780S); 90 µM in data set [2] (A2780 DDP, (1h) exposure, read-out: EC50); 90 µM in [2] (treatment time 1 hr, proliferation during 6 days, mean + SD, read-out: EC50 A2780DDP); 100 µM in [3] ((1h) exposure); 30 µM in data set [4] ((1h) exposure). In addition, the EC50 in data set [5] ((1h) exposure) stood at 15 µM; in data set [6] ((1h) exposure) it was 35 µM; in data set [7] ((1h) exposure), 25 µM; in data set [8] ((1h) exposure), 6 µM; in data set [9] ((1h) exposure), 15 µM; in [10] ((1h) exposure) it was 15 µM. Also, the “Ratio (degree of resistance or cross-resistance)” value in data set [2] (A2780DDP vs A2780S EC50, treatment time 1 hr) was “+12.8”. Further, the “fold resistance, cisplatin resistant vs sensitive A2780 cells” value in data set [2] (A2780 ovarian carcinoma cells) is reported as above 12 fold. In addition, the “fold resistance, cispt resistant vs sensitive HCT8 cells” value in [3] (HCT8 human colon cancer cells) is 2.7 fold. The “fold resistance, cispt resistant vs sensitive MCF7 cells” value in data set [6] (MCF7 human breast cancer cells) came to 2.3 fold. In addition, the “degradation of (14C) DNA” value was found to be 10% in data set [14] (A2780S, cisplatin 20 μM, over 3 hrs) and 40.5% in [15] (A2780DDP, cisplatin 20 μM, in 3 hrs). Further, the “14C-Tdr/DNA A2780S” value came out at 6.49 in data set [14] (setting [17]), 6.21 in [14] (setting [18]), 5.71 in data set [14] (setting [19]) and 6.06 in data set [14] (setting [20]). The “14C-Tdr/DNA A2780DDP” value came to 17.78 in [15] (setting [17]), 14.44 in data set [15] (setting [18]), 12.59 in [15] (setting [19]) and 10.57 in [15] (setting [20]).
Regarding `N.N.[Cl][Pt+2][Cl]` [Transplatin], the “influence on DNA synthesis or degradation” value in [16] is “no influence”.
In the case of `CN(Cc1cnc2nc(N)nc(N)c2n1)c1ccc(C(=O)N[C@@H](CCC(=O)O)C(=O)O)cc1` [methotrexate], the “fold resistance of CEM/MTX cells” value in data set [13] (CEM cells made resistant by weekly (2 hr) pulses) was 15.8 fold.

As usually defined, the EC50 is the concentration that produces a half-maximal response.
